According to publication PMC9776540, “Therapeutic Potential of a Water-Soluble Silver-Diclofenac Coordination Polymer on 3D Pancreatic Cancer Spheroids” (Journal of Medicinal Chemistry, 2022):

Tests used:
human cell lines = details: up to a concentration of 100 μM
Procedure: (§1) MCF7 cell line (human breast adenocarcinoma, morphology: epithelial-like, ATCC: HTB-22), A549 cell […]
(§2) keratinocyte, morphology: epidermal, CSL Cell Lines Service GmbH); were cultured in Dulbecco’s Modified Eagle’s Medium (DMEM, Corning) with phenol red, supplemented with 10% fetal bovine serum (FBS) and with 1% streptomycin/penicillin. […]
(§3) from metastatic site: brain, ATCC: HTB-81) and MCR-5 cell line (primary line of human pulmonary […]
(§4) 10% fetal bovine serum (FBS). Cultures were incubated at 37 °C under a humidified atmosphere containing 5% CO2. Cells were transferred using a solution containing 0.05% trypsin and 0.5 mM EDTA.
(§5) All media and other ingredients were purchased from ALAB, Poland.
Cytotoxicity was assessed by MTT assay performed according the protocols described elsewhere.S1 In brief, 1×10^4 cells per well, seeded in 96-well flat bottom microtiter plate, were incubated with the tested compounds (in the appropriate media) at various range of concentrations for 24 h. […] After next 72 h cell viability was determined using the Hill equation (Origin 9.0) with regard to the untreated cells (control), where y0 – untreated cell control (which was set to 100% viability), y100 – a lysis control (where the cells were treated with 0.5% triton X-100 was set to 0% […]
Determined values of IC50 are given as mean + S.D. (Standard Deviation). […]

DU-145 [1] = experiment: MTT survival test, surviving fraction (Table S3); type: cell-based, human
Procedure: (§6) 24, and 72 h. After each incubation time, the cells were washed with PBS. Then, fresh medium (supplemented with 10% FSB) was added, and the cells were incubated under standard conditions for another 24 h (6h + 24h, 24h + 24h, 72h + 24h). After this time, the MTT survival test was done. Surviving fraction given in % was estimated with relation to untreated cells. In the case of 6h + 24h and 24h + 24h approaches, the cells were seeded at 10 000 cells per well, while in the case of 72h + 24h at […]

A549 [2] = experiment: MTT survival test, surviving fraction (Table S3); type: cell-based, human
Procedure: as §6

MCF-7 = experiment: MTT survival test, surviving fraction (Table S3); type: cell-based, human
Procedure: as §6

PANC-1 [3] = experiment: MTT survival test, surviving fraction (Table S3); type: cell-based, human
Procedure: as §6

HaCat [4] = experiment: MTT survival test, surviving fraction (Table S3); type: cell-based, human
Procedure: as §6

DU-145 [5] = experiment: MTT cytotoxicity assay (IC50); type: cell-based, human; details: DU-145, after 72 h incubation, MTT, vs untreated control cells; read-out: IC50
Procedure: as §1, §2, §3, §4, §5
(§7) Cytotoxicity was assessed by MTT assay performed according the protocols described elsewhere.S1 In brief, 1×10^4 cells per well, seeded in 96-well flat bottom microtiter plate, were incubated with the tested compounds (in the appropriate media) at various range of concentrations for 24 h. After that time, solutions of compounds were washed out, cells were washed three times with PBS and fresh medium was applied. After next 72 h cell viability was determined using the Hill equation (Origin 9.0) with regard to the untreated cells (control), where y0 – untreated cell control (which was set to 100% viability), y100 – a lysis control (where the cells were treated with 0.5% triton X-100 was set to 0% […]
(§8) [c] at which the viability of the cells reaches 50%, H – the Hill coefficient (describing cooperativity):
(§9) Each compound concentration was tested in five replicates and repeated at least three times.
(§10) Determined values of IC50 are given as mean + S.D. (Standard Deviation).
(§11) Cisplatin was tested as a reference anticancer drug. […]

A549 [6] = experiment: MTT cytotoxicity assay (IC50); type: cell-based, human; details: A549, after 72 h incubation, MTT, vs untreated control cells; read-out: IC50
Procedure: as §1, §2, §3, §4, §5, §7, §8, §9, §10, §11

MRC5 = experiment: MTT cytotoxicity assay (IC50); type: cell-based, human; details: MRC5 normal cells, after 72 h incubation, MTT, vs untreated control cells; read-out: IC50
Procedure: as §1, §2, §3, §4, §5, §7, §8, §9, §10, §11

PANC-1 [7] = experiment: MTT cytotoxicity assay (IC50); type: cell-based, human; details: PANC-1, after 72 h incubation, MTT, vs untreated control cells; read-out: IC50
Procedure: as §1, §2, §3, §4, §5, §7, §8, §9, §10, §11

HaCat [8] = experiment: MTT cytotoxicity assay (IC50); type: cell-based, human; details: HaCat normal cells, after 72 h incubation, MTT, vs untreated control cells; read-out: IC50
Procedure: as §1, §2, §3, §4, §5, §7, §8, §9, §10, §11

MCF7 = experiment: MTT cytotoxicity assay (IC50); type: cell-based, human; details: MCF7, after 72 h incubation, MTT, vs untreated control cells; read-out: IC50
Procedure: as §1, §2, §3, §4, §5, §7, §8, §9, §10, §11

In the case of O=[N+]([O-])[O-].[Ag+] [AgNO3, silver(I) nitrate], the “cytotoxic effect of free Ag(I) salt” value (human cell lines) is reported as “does not cause significant toxic effects”, the surviving fraction (DU-145 [1]; Du-145, 6h + 24h, dil. 10 000x (stocks: diclofenac 0.918, PTA 0.483, AgNO3 0.326 mg/mL)) is reported as 74.5 ± 8.8% and the surviving fraction (DU-145 [1]; Du-145, 6h + 24h, dil. 1000x (stocks: diclofenac 0.918, PTA 0.483, AgNO3 0.326 mg/mL)) is reported as 62.87 ± 5.9%. It also gave a surviving fraction (DU-145 [1]; Du-145, 24h + 24h, dil. 10 000x (stocks: diclofenac 0.918, PTA 0.483, AgNO3 0.326 mg/mL)) of 58.8 ± 7.3%, a surviving fraction (DU-145 [1]; Du-145, 24h + 24h, dil. 1000x (stocks: diclofenac 0.918, PTA 0.483, AgNO3 0.326 mg/mL)) of 36.7 ± 7.1% and a surviving fraction (DU-145 [1]; Du-145, 72h + 24h, dil. 10 000x (stocks: diclofenac 0.918, PTA 0.483, AgNO3 0.326 mg/mL)) of 56.1 ± 5.9%. The surviving fraction (DU-145 [1]; Du-145, 72h + 24h, dil. 1000x (stocks: diclofenac 0.918, PTA 0.483, AgNO3 0.326 mg/mL)) was 42.8 ± 5.9%, the surviving fraction (A549 [2]; A549, 6h + 24h, dil. 10 000x (stocks: diclofenac 0.918, PTA 0.483, AgNO3 0.326 mg/mL)) was 68.1 ± 6.2% and the surviving fraction (A549 [2]; A549, 6h + 24h, dil. 1000x (stocks: diclofenac 0.918, PTA 0.483, AgNO3 0.326 mg/mL)) was 48.9 ± 6.5%. For the same compound, the surviving fraction (A549 [2]; A549, 24h + 24h, dil. 10 000x (stocks: diclofenac 0.918, PTA 0.483, AgNO3 0.326 mg/mL)) was 57.4 ± 3.8%, the surviving fraction (A549 [2]; A549, 24h + 24h, dil. 1000x (stocks: diclofenac 0.918, PTA 0.483, AgNO3 0.326 mg/mL)) was 31.2 ± 5.5% and the surviving fraction (A549 [2]; A549, 72h + 24h, dil. 10 000x (stocks: diclofenac 0.918, PTA 0.483, AgNO3 0.326 mg/mL)) was 55.8 ± 8.1%. It also gave a surviving fraction (A549 [2]; A549, 72h + 24h, dil. 1000x (stocks: diclofenac 0.918, PTA 0.483, AgNO3 0.326 mg/mL)) of 34.1 ± 5.3%, a surviving fraction (MCF-7; MCF-7, 6h + 24h, dil. 10 000x (stocks: diclofenac 0.918, PTA 0.483, AgNO3 0.326 mg/mL)) of 59.2 ± 8.2% and a surviving fraction (MCF-7; MCF-7, 6h + 24h, dil. 1000x (stocks: diclofenac 0.918, PTA 0.483, AgNO3 0.326 mg/mL)) of 62.7 ± 6.3%. For the same compound, the surviving fraction (MCF-7; MCF-7, 24h + 24h, dil. 10 000x (stocks: diclofenac 0.918, PTA 0.483, AgNO3 0.326 mg/mL)) was 62.1 ± 5.5%, the surviving fraction (MCF-7; MCF-7, 24h + 24h, dil. 1000x (stocks: diclofenac 0.918, PTA 0.483, AgNO3 0.326 mg/mL)) was 38.5 ± 7.3% and the surviving fraction (MCF-7; MCF-7, 72h + 24h, dil. 10 000x (stocks: diclofenac 0.918, PTA 0.483, AgNO3 0.326 mg/mL)) was 56.8 ± 6.2%. For the same compound, the surviving fraction (MCF-7; MCF-7, 72h + 24h, dil. 1000x (stocks: diclofenac 0.918, PTA 0.483, AgNO3 0.326 mg/mL)) was 36.0 ± 8.4%, the surviving fraction (PANC-1 [3]; PANC-1, 6h + 24h, dil. 10 000x (stocks: diclofenac 0.918, PTA 0.483, AgNO3 0.326 mg/mL)) was 76.2 ± 7.4% and the surviving fraction (PANC-1 [3]; PANC-1, 6h + 24h, dil. 1000x (stocks: diclofenac 0.918, PTA 0.483, AgNO3 0.326 mg/mL)) was 65.89 ± 4.6%. The surviving fraction (PANC-1 [3]; PANC-1, 24h + 24h, dil. 10 000x (stocks: diclofenac 0.918, PTA 0.483, AgNO3 0.326 mg/mL)) was 65.8 ± 6.6%, the surviving fraction (PANC-1 [3]; PANC-1, 24h + 24h, dil. 1000x (stocks: diclofenac 0.918, PTA 0.483, AgNO3 0.326 mg/mL)) was 44.2 ± 9.2% and the surviving fraction (PANC-1 [3]; PANC-1, 72h + 24h, dil. 10 000x (stocks: diclofenac 0.918, PTA 0.483, AgNO3 0.326 mg/mL)) was 65.8 ± 6.1%. It also gave a surviving fraction (PANC-1 [3]; PANC-1, 72h + 24h, dil. 1000x (stocks: diclofenac 0.918, PTA 0.483, AgNO3 0.326 mg/mL)) of 55.4 ± 6.7%, a surviving fraction (HaCat [4]; 6h + 24h, dil. 10 000x (stocks: diclofenac 0.918, PTA 0.483, AgNO3 0.326 mg/mL)) of 88.1 ± 4.2% and a surviving fraction (HaCat [4]; 6h + 24h, dil. 1000x (stocks: diclofenac 0.918, PTA 0.483, AgNO3 0.326 mg/mL)) of 76.7 ± 6.8%. For the same compound, the surviving fraction (HaCat [4]; 24h + 24h, dil. 10 000x (stocks: diclofenac 0.918, PTA 0.483, AgNO3 0.326 mg/mL)) was 72.7 ± 8.1%, the surviving fraction (HaCat [4]; 24h + 24h, dil. 1000x (stocks: diclofenac 0.918, PTA 0.483, AgNO3 0.326 mg/mL)) was 41.6 ± 6.9% and the surviving fraction (HaCat [4]; 72h + 24h, dil. 10 000x (stocks: diclofenac 0.918, PTA 0.483, AgNO3 0.326 mg/mL)) was 70.5 ± 5.8%. The surviving fraction (HaCat [4]; 72h + 24h, dil. 1000x (stocks: diclofenac 0.918, PTA 0.483, AgNO3 0.326 mg/mL)) was 65.2 ± 6.3%.

For N.N.[Cl][Pt][Cl] [cisplatin], the IC50 (DU-145 [5]) was > 100 µM, the IC50 (A549 [6]) was > 100 µM and the IC50 (MRC5) was 31.5 ± 4.1 µM. The IC50 (PANC-1 [7]) was 12.5 ± 1.3 µM, the IC50 (HaCat [8]) was 26.4 ± 2.7 µM and the IC50 (MCF7) was 50.9 ± 7.6 µM.
